The values below come from PMC9572452, “Inhibition of α-Glucosidase and Pancreatic Lipase Properties of Mitragyna speciosa (Korth.) Havil. (Kratom) Leaves” (Nutrients, 2022).

For one experiment, the system named is μ-opioid receptors. Also on record: method as in PMID 27192616. As to conditions: cited from earlier work.
Experiment [1] concerns the target T1, α-glucosidase (Saccharomyces cerevisiae, UniProt P53341). Put plainly: α-glucosidase inhibition and kinetics, pNPG substrate. The experiment is classed as biochemical. The note with it: Lineweaver–Burk plots. Here is the method: The assay was performed as described previously with some modifications. The kinetic parameters (Michaelis–Menten constant; Km and maximum velocity; Vmax) of α-glucosidase were determined by using p-nitrophenol-α-D-glucopyranoside (pNPG) as a substrate. Briefly, 0.1 unit of α-glucosidase (Sigma-Aldrich, St Louis, MO, USA) were incubated at 37 °C with 100 µL of total reaction. After 10 min, the reactions were started by adding 50 µL pNPG (Sigma-Aldrich, St Louis, MO, USA, lot number 3698310) ranging from 0 to 15 mM, and the p-nitrophenol product was measured at 405 nm using a microplate reader (Multiskan SkyHigh, Thermo Scientific, Göteborg, Sweden). The substrate concentration rates were plotted against pNPG concentrations and fitted to the Michaelis–Menten equation.
The IC50 was determined by comparing the rate of each test inhibitor concentration to that of the vehicle control (ethanol), and the IC50 was calculated by plotting the remaining activity of each inhibitor concentration to the log test inhibitor concentration. […] After co-incubation with each inhibitor for 5 min at 37 °C, the reactions were initiated by adding the p-NPG substrate (0–15 mM). The inhibition constant (Ki) values were determined from Lineweaver–Burk Plots.

Another experiment concerns lipase. Set-up: method as in PMID 29292744. As to conditions: therapeutic oral dose of 120 mg three times per day; cited from earlier work.
The target in a further experiment is T2, pancreatic lipase (Sus scrofa, UniProt P00591).
T2 construct: purchased Sigma-Aldrich
T2 sequence (P00591 1-450): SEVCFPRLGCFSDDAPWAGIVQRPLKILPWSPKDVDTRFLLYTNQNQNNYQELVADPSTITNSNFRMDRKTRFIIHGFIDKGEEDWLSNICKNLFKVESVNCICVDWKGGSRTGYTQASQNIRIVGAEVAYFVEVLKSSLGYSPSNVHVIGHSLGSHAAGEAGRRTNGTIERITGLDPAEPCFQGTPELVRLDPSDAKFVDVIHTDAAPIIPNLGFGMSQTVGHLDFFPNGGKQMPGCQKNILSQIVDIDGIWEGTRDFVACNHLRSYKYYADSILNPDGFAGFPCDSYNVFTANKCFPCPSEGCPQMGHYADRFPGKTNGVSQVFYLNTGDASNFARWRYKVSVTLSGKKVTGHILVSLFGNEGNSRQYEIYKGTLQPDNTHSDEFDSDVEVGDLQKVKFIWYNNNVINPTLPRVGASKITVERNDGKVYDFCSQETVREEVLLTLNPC
Put plainly: pancreatic lipase inhibition and kinetics, 4MUO substrate. As to conditions: for Pancreatic Lipase mode of inhibition: Lineweaver–Burk plots. The experiment is classed as biochemical. Here is the method: The kinetic parameters (Km and Vmax) of pancreatic lipase were determined using 4-methylumbelliferyl oleate (4MUO) as the substrate (Sigma-Aldrich, St Louis, MO, USA, Lot number BCCF8781). Briefly, 0.5 units of lipase (Sigma-Aldrich, St Louis, MO, USA, Lot number SLCG8579) were incubated in 96-well plates with a total volume of 100 µL (15 mM Tris-HCl buffer, pH 8.0) at 37 °C for 10 min. The reactions were initiated by adding 50 µL of 4MUO ranging from 0 to 5 mM. […] The rates at which substrate concentrations were plotted against 4MUO concentrations and fitted to the Michaelis–Menten equation. […] After 10 min, the reactions were started by adding 0.35 mM 4MUO. The reaction rates were monitored by measuring the release of 4MU from 4MUO. […] The remaining activity of lipase was determined by comparing the rate of each test inhibitor concentration to the vehicle control (ethanol), and IC50 was calculated by plotting the remaining activity of each inhibitor concentration to the log test inhibitor concentration.

Experiment [2] addresses T1, α-glucosidase. Kind of experiment: combination of kratom extracts or mitragynine with acarbose on α-glucosidase. The experiment is classed as biochemical. The method, then: After 10 min, the residual reactions were started by the addition of 50 µL of 0.3 mM pNPG. The reactions were left to proceed for 10 min. The absorption at 405 nm was then measured using a microplate reader, and IC50 values were calculated by GraphPad Prism version 9.3.1.

SMILES strings stand for the structures. Several values for one entry are separate records, joined by “and”; a condition that tells them apart may be missing. Equal values may be shown once. Entries after “also recorded” stand apart in the source; their conditions may differ.

T1 sequence (P53341 whole entry): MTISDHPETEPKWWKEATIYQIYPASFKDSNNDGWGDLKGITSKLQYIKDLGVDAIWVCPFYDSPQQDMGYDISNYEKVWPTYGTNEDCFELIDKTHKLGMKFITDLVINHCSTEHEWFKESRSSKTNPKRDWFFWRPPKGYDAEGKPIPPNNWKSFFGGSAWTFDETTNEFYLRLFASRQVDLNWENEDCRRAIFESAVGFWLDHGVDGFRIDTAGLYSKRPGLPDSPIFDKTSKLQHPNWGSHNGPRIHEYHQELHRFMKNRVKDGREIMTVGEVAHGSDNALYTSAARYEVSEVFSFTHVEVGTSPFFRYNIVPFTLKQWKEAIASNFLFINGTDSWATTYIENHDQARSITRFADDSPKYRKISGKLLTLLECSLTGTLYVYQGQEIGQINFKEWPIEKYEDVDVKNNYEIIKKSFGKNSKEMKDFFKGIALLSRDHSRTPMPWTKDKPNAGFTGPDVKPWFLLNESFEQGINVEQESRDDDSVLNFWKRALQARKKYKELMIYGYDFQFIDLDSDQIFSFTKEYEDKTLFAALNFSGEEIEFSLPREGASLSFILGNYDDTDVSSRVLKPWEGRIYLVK

Regarding `CC[C@@H]1CN2CC[C@@]3(O)C(=Nc4cccc(OC)c43)[C@@H]2C[C@@H]1/C(=C\OC)C(=O)OC` [7-hydroxymitragynine], the “analgesic activity, fold higher than that of mitragynine” value in the experiment on μ-opioid receptors is reported as 16 fold.
`C[C@H]1O[C@H](O[C@H]2[C@H](O)[C@@H](O)[C@@H](O[C@H]3[C@H](O)[C@@H](O)C(O)O[C@@H]3CO)O[C@@H]2CO)[C@H](O)[C@@H](O)[C@@H]1N[C@H]1C=C(CO)[C@@H](O)[C@H](O)[C@H]1O` (stereo partly shown) [Acarbose, reference compound]: the “α-Glucosidase mode of inhibition” value at α-glucosidase [1] is listed as “mixed-type”; on α-glucosidase [1] (listed as acarbose) it was “mixed-type inhibition mode”.
In the case of `CCCCCCCCCCC[C@@H](C[C@@H]1OC(=O)[C@H]1CCCCCC)OC(=O)[C@H](CC(C)C)NC=O` [Orlistat, reference compound], the “reduction of dietary fat absorption” value in the experiment with lipase is given as “one-third”. Moreover, the “Pancreatic Lipase mode of inhibition” value on pancreatic lipase is reported as “competitive”; at pancreatic lipase (listed as orlistat), “competitive inhibitors; also recorded: competitive mode”.
What is called IC50 is the concentration that inhibits the measured activity by half. The low end stands for inhibition by little substance, the high end for a need for much substance. By Ki is commonly meant the equilibrium dissociation constant of an inhibitor or competing ligand from its target. Read a low Ki as tighter binding. For the compound `CC[C@@H]1CN2CCc3c([nH]c4cccc(OC)c34)[C@@H]2C[C@@H]1/C(=C\OC)C(=O)OC` [Mitragynine], the entries for the “α-Glucosidase mode of inhibition” value on α-glucosidase [1] and on α-glucosidase [1] (listed as mitragynine) were “noncompetitive” and “noncompetitive inhibitor; also recorded: noncompetitive mode”, respectively. On α-glucosidase [2] (mitragynine 100 µM with acarbose), the “potency of combination with acarbose compared with kratom extract combinations” value is given as “less potency than that of kratom extracts”. The “IC50 of combination with acarbose compared with kratom extract combinations” value on α-glucosidase [2] (mitragynine 200 and 300 µM with acarbose) is listed as “decreased IC50 values compared with that of mixed kratom extracts”. In addition, on α-glucosidase [2] (mitragynine combined with acarbose), the “interaction with acarbose in α-glucosidase inhibition” value was “synergistic interaction; also recorded: synergistic effect”. For the same compound, the “pancreatic lipase IC50, fold higher than that of orlistat” value on pancreatic lipase was found to be 30 fold. For the same compound, at pancreatic lipase (0.35 mM 4MUO, 37 °C, mean ± SD, n = 3), the IC50 is 24.9 µM and 24.7 µM. In addition, the “Pancreatic Lipase mode of inhibition” value is recorded as “competitive” on pancreatic lipase and “competitive inhibitors; also recorded: competitive mode” at pancreatic lipase (listed as mitragynine). Besides, the affinity at pancreatic lipase (from Lineweaver–Burk plots, 4MUO substrate) corresponds to a Ki of 14.9 µM.
